The NIST ThermoML archive (doi:10.1016/j.jct.2004.11.012)
± gives the expanded uncertainty stated by the source.

Conditions: 101.33 kPa, Liquid

SMILES | mass density (298.15 K) | mass density (308.15 K)
C=CCOC(=O)C(=C)C [2-propenyl 2-methylpropenoate] | 927.997 ± 0.17 kg/m3 | 917.423 ± 0.18 kg/m3
C=C(C)C(=O)OCCCC [butyl 2-methyl-2-propenoate] | 890.438 ± 0.28 kg/m3 | 880.857 ± 0.28 kg/m3
C=COC(C)=O [vinyl acetate] | 925.775 ± 0.16 kg/m3 | 913.134 ± 0.16 kg/m3
COC(C)(C)C [2-methoxy-2-methylpropane] | 735.356 ± 0.27 kg/m3 | 724.85 ± 0.28 kg/m3
C=C(C)C(=O)O [2-methyl-2-propenoic acid] | 1009.13 ± 0.13 kg/m3 | 998.64 ± 0.13 kg/m3
